# Results: ChEMBL document CHEMBL1158853, “Laurencia rigida: chemical investigations of its antifouling dichloromethane extract” (J Nat Prod, 1997)
# Counter-ions that a name gives are not always drawn. Calls of active or inactive are those of the source. The calls are words filed in the database; no cut-off is given here.
# Key:
# Microbotryum violaceum [1] = assay: Antifungal activity against Ustilago violacea at 34 ug by agar diffusion assay; assay type: functional; conditions: read-out: IZ
# [Chlorella] fusca [2] = Antialgal activity against Chlorella fusca at 34 ug by agar diffusion assay; assay type: functional; conditions: Scenedesmus fuscus; read-out: IZ
# Mycotypha microspora [3] = assay: Antifungal activity against Mycotypha microspora at 34 ug by agar diffusion assay; assay type: functional; conditions: read-out: IZ
# Fusarium oxysporum [4] = assay: Antifungal activity against Fusarium oxysporum at 34 ug by agar diffusion assay; assay type: functional; conditions: read-out: IZ
# Priestia megaterium [5] = assay: Antibacterial activity against Bacillus megaterium at 34 ug by agar diffusion assay; assay type: functional; conditions: read-out: IZ
# [6] = system: Aspergillus pseudoglaucus; assay: Antifungal activity Eurotium repens at 34 ug by agar diffusion assay; assay type: functional; conditions: read-out: IZ
# Escherichia coli [7] = assay: Antibacterial activity against Escherichia coli at 34 ug by agar diffusion assay; assay type: functional; conditions: read-out: IZ
# Priestia megaterium [8] = assay: Antibacterial activity against Bacillus megaterium at 33 ug by agar diffusion assay; assay type: functional; conditions: read-out: IZ
# Microbotryum violaceum [9] = assay: Antifungal activity against Ustilago violacea at 33 ug by agar diffusion assay; assay type: functional; conditions: read-out: IZ
# Mycotypha microspora [10] = assay: Antifungal activity against Mycotypha microspora at 33 ug by agar diffusion assay; assay type: functional; conditions: read-out: IZ
# Fusarium oxysporum [11] = assay: Antifungal activity against Fusarium oxysporum at 33 ug by agar diffusion assay; assay type: functional; conditions: read-out: IZ
# Escherichia coli [12] = assay: Antibacterial activity against Escherichia coli at 33 ug by agar diffusion assay; assay type: functional; conditions: read-out: IZ
# [13] = system: Aspergillus pseudoglaucus; assay: Antifungal activity Eurotium repens at 33 ug by agar diffusion assay; assay type: functional; conditions: read-out: IZ
# [Chlorella] fusca [14] = Antialgal activity against Chlorella fusca at 33 ug by agar diffusion assay; assay type: functional; conditions: Scenedesmus fuscus; read-out: IZ
# [15] = system: Aspergillus pseudoglaucus; assay: Antifungal activity Eurotium repens at 40 ug by agar diffusion assay; assay type: functional; conditions: read-out: IZ
# Priestia megaterium [16] = assay: Antibacterial activity against Bacillus megaterium at 40 ug by agar diffusion assay; assay type: functional; conditions: read-out: IZ
# Escherichia coli [17] = assay: Antibacterial activity against Escherichia coli at 40 ug by agar diffusion assay; assay type: functional; conditions: read-out: IZ
# [Chlorella] fusca [18] = Antialgal activity against Chlorella fusca at 40 ug by agar diffusion assay; assay type: functional; conditions: Scenedesmus fuscus; read-out: IZ
# Mycotypha microspora [19] = assay: Antifungal activity against Mycotypha microspora at 40 ug by agar diffusion assay; assay type: functional; conditions: read-out: IZ
# Fusarium oxysporum [20] = assay: Antifungal activity against Fusarium oxysporum at 40 ug by agar diffusion assay; assay type: functional; conditions: read-out: IZ
# Microbotryum violaceum [21] = assay: Antifungal activity against Ustilago violacea at 40 ug by agar diffusion assay; assay type: functional; conditions: read-out: IZ
# [Chlorella] fusca [22] = Antialgal activity against Chlorella fusca at 50 ug by agar diffusion assay; assay type: functional, organism-based; conditions: Scenedesmus fuscus
# Escherichia coli [23] = assay: Antibacterial activity against Escherichia coli at 50 ug by agar diffusion assay; assay type: functional, organism-based
# Priestia megaterium [24] = assay: Antibacterial activity against Bacillus megaterium at 50 ug by agar diffusion assay; assay type: functional, organism-based
# Fusarium oxysporum [25] = assay: Antifungal activity against Fusarium oxysporum at 60 ug by agar diffusion assay; assay type: functional; conditions: read-out: IZ
# [26] = system: Aspergillus pseudoglaucus; assay: Antifungal activity Eurotium repens at 60 ug by agar diffusion assay; assay type: functional; conditions: read-out: IZ
# Microbotryum violaceum [27] = assay: Antifungal activity against Ustilago violacea at 60 ug by agar diffusion assay; assay type: functional, organism-based
# Mycotypha microspora [28] = assay: Antifungal activity against Mycotypha microspora at 60 ug by agar diffusion assay; assay type: functional; conditions: read-out: IZ
# [Chlorella] fusca [29] = Antialgal activity against Chlorella fusca at 25 ug by agar diffusion assay; assay type: functional; conditions: Scenedesmus fuscus; read-out: IZ
# Fusarium oxysporum [30] = assay: Antifungal activity against Fusarium oxysporum at 25 ug by agar diffusion assay; assay type: functional; conditions: read-out: IZ
# [31] = system: Aspergillus pseudoglaucus; assay: Antifungal activity Eurotium repens at 25 ug by agar diffusion assay; assay type: functional; conditions: read-out: IZ
# Escherichia coli [32] = assay: Antibacterial activity against Escherichia coli at 25 ug by agar diffusion assay; assay type: functional; conditions: read-out: IZ
# Priestia megaterium [33] = assay: Antibacterial activity against Bacillus megaterium at 25 ug by agar diffusion assay; assay type: functional; conditions: read-out: IZ
# Microbotryum violaceum [34] = assay: Antifungal activity against Ustilago violacea at 25 ug by agar diffusion assay; assay type: functional; conditions: read-out: IZ
# Amphibalanus amphitrite = assay: Toxicity in Balanus amphitrite nauplii larvae assessed as survival rate; assay type: organism-based; conditions: in vivo
# Mycotypha microspora [35] = assay: Antifungal activity against Mycotypha microspora at 25 ug by agar diffusion assay; assay type: functional; conditions: read-out: IZ
# [Chlorella] fusca [36] = Antialgal activity against Chlorella fusca at 135 ug by agar diffusion assay; assay type: functional; conditions: Scenedesmus fuscus; read-out: IZ
# [37] = system: Aspergillus pseudoglaucus; assay: Antifungal activity Eurotium repens at 135 ug by agar diffusion assay; assay type: functional; conditions: read-out: IZ
# Priestia megaterium [38] = assay: Antibacterial activity against Bacillus megaterium at 135 ug by agar diffusion assay; assay type: functional; conditions: read-out: IZ
# Mycotypha microspora [39] = assay: Antifungal activity against Mycotypha microspora at 135 ug by agar diffusion assay; assay type: functional; conditions: read-out: IZ
# Escherichia coli [40] = assay: Antibacterial activity against Escherichia coli at 135 ug by agar diffusion assay; assay type: functional; conditions: read-out: IZ
# Fusarium oxysporum [41] = assay: Antifungal activity against Fusarium oxysporum at 135 ug by agar diffusion assay; assay type: functional; conditions: read-out: IZ
# Microbotryum violaceum [42] = assay: Antifungal activity against Ustilago violacea at 135 ug by agar diffusion assay; assay type: functional; conditions: read-out: IZ
# Mycotypha microspora [43] = assay: Antifungal activity against Mycotypha microspora at 50 ug by agar diffusion assay; conditions: read-out: IZ
# [44] = system: Aspergillus pseudoglaucus; assay: Antifungal activity Eurotium repens at 50 ug by agar diffusion assay; conditions: read-out: IZ
# Fusarium oxysporum [45] = assay: Antifungal activity against Fusarium oxysporum at 50 ug by agar diffusion assay; conditions: read-out: IZ
# Priestia megaterium [46] = assay: Antibacterial activity against Bacillus megaterium at 85 ug by agar diffusion assay; assay type: functional; conditions: read-out: IZ
# Escherichia coli [47] = assay: Antibacterial activity against Escherichia coli at 85 ug by agar diffusion assay; assay type: functional; conditions: read-out: IZ
# Priestia megaterium [48] = assay: Antibacterial activity against Bacillus megaterium at 45 ug by agar diffusion assay; assay type: functional; conditions: read-out: IZ
# [49] = system: Aspergillus pseudoglaucus; assay: Antifungal activity Eurotium repens at 45 ug by agar diffusion assay; assay type: functional; conditions: read-out: IZ
# Fusarium oxysporum [50] = assay: Antifungal activity against Fusarium oxysporum at 45 ug by agar diffusion assay; assay type: functional; conditions: read-out: IZ
# Escherichia coli [51] = assay: Antibacterial activity against Escherichia coli at 45 ug by agar diffusion assay; assay type: functional; conditions: read-out: IZ
# [Chlorella] fusca [52] = Antialgal activity against Chlorella fusca at 45 ug by agar diffusion assay; assay type: functional; conditions: Scenedesmus fuscus; read-out: IZ
# Mycotypha microspora [53] = assay: Antifungal activity against Mycotypha microspora at 45 ug by agar diffusion assay; assay type: functional; conditions: read-out: IZ
# Microbotryum violaceum [54] = assay: Antifungal activity against Ustilago violacea at 45 ug by agar diffusion assay; assay type: functional; conditions: read-out: IZ
# Escherichia coli [55] = assay: Antibacterial activity against Escherichia coli at 65 ug by agar diffusion assay; assay type: functional; conditions: read-out: IZ
# Priestia megaterium [56] = assay: Antibacterial activity against Bacillus megaterium at 65 ug by agar diffusion assay; assay type: functional; conditions: read-out: IZ
smiles,measurement,setting,value
CC(=O)OC(C=C(C)C)C/C(C)=C1/CC=C(C)CC1 (stereo unspecified),zone of inhibition at 34 µg/disc,Microbotryum violaceum [1],0 mm
same,zone of inhibition at 34 µg/disc,[Chlorella] fusca [2],3 mm
same,zone of inhibition at 34 µg/disc,Mycotypha microspora [3],0 mm
same,zone of inhibition at 34 µg/disc,Fusarium oxysporum [4],0 mm
same,zone of inhibition at 34 µg/disc,Priestia megaterium [5],0 mm
same,zone of inhibition at 34 µg/disc,[6],0 mm
same,zone of inhibition at 34 µg/disc,Escherichia coli [7],0 mm
CC1=CC[C@]2(CC1)C(C)=C[C@@H](O)[C@H](Br)C2(C)C,zone of inhibition at 33 µg/disc,Priestia megaterium [8],0 mm
same,zone of inhibition at 33 µg/disc,Microbotryum violaceum [9],0 mm
same,zone of inhibition at 33 µg/disc,Mycotypha microspora [10],3 mm
same,zone of inhibition at 33 µg/disc,Fusarium oxysporum [11],0 mm
same,zone of inhibition at 33 µg/disc,Escherichia coli [12],0 mm
same,zone of inhibition at 33 µg/disc,[13],0 mm
same,zone of inhibition at 33 µg/disc,[Chlorella] fusca [14],3 mm
C[C@@H]1CCC23[C@H]1CC[C@@]2(C)C[C@H](C)[C@]3(C)O (stereo partly specified),zone of inhibition at 40 µg/disc,[15],0 mm
same,zone of inhibition at 40 µg/disc,Priestia megaterium [16],0 mm
same,zone of inhibition at 40 µg/disc,Escherichia coli [17],0 mm
same,zone of inhibition at 40 µg/disc,[Chlorella] fusca [18],2 mm
same,zone of inhibition at 40 µg/disc,Mycotypha microspora [19],0 mm
same,zone of inhibition at 40 µg/disc,Fusarium oxysporum [20],0 mm
same,zone of inhibition at 40 µg/disc,Microbotryum violaceum [21],0 mm
C=C1CC[C@H](Br)C(C)(C)[C@]12CC=C(C)CC2,Activity,[Chlorella] fusca [22],inactive
same,Activity,Escherichia coli [23],inactive
same,Activity,Priestia megaterium [24],inactive
CC1=CC[C@@]2(CC1)C(C)=CC[C@@H](Br)C2(C)C,Activity,[Chlorella] fusca [22],inactive
same,Activity,Escherichia coli [23],inactive
same,Activity,Priestia megaterium [24],inactive
C[C@@H]1C[C@@H]([C@H](O)CC2CC(=O)NC(=O)C2)C(=O)[C@@H](C)C1 [CYCLOHEXIMIDE],zone of inhibition at 60 µg/disc,Fusarium oxysporum [25],3 mm
same,zone of inhibition at 60 µg/disc,[26],5 mm
same,Activity,Microbotryum violaceum [27],Active
same,zone of inhibition at 60 µg/disc,Mycotypha microspora [28],4 mm
C=C1C[C@H](O)[C@H](Br)C(C)(C)[C@]12CC=C(C)CC2 [DESCHLOROELATOL],zone of inhibition at 25 µg/disc,[Chlorella] fusca [29],2 mm
same,zone of inhibition at 25 µg/disc,Fusarium oxysporum [30],0 mm
same,zone of inhibition at 25 µg/disc,[31],18 mm
same,zone of inhibition at 25 µg/disc,Escherichia coli [32],0 mm
same,zone of inhibition at 25 µg/disc,Priestia megaterium [33],1 mm
same,zone of inhibition at 25 µg/disc,Microbotryum violaceum [34],0 mm
same,Activity,Amphibalanus amphitrite,Toxic
same,zone of inhibition at 25 µg/disc,Mycotypha microspora [35],20 mm
C=C1C[C@H](O)[C@H](Br)C(C)(C)[C@@]12CCC(C)=C(Cl)C2 [ELATOL],zone of inhibition at 135 µg/disc,[Chlorella] fusca [36],0 mm
same,zone of inhibition at 135 µg/disc,[37],25 mm
same,zone of inhibition at 135 µg/disc,Priestia megaterium [38],2 mm
same,zone of inhibition at 135 µg/disc,Mycotypha microspora [39],25 mm
same,zone of inhibition at 135 µg/disc,Escherichia coli [40],0 mm
same,zone of inhibition at 135 µg/disc,Fusarium oxysporum [41],7 mm
same,Activity,Amphibalanus amphitrite,Toxic
same,zone of inhibition at 135 µg/disc,Microbotryum violaceum [42],3 mm
Clc1ccc(COC(Cn2ccnc2)c2ccc(Cl)cc2Cl)c(Cl)c1 (stereo unspecified) [MICONAZOLE NITRATE],zone of inhibition at 50 µg/disc,Mycotypha microspora [43],7 mm
same,zone of inhibition at 50 µg/disc,[44],18 mm
same,zone of inhibition at 50 µg/disc,Fusarium oxysporum [45],1 mm
CC1(C)S[C@@H]2[C@H](NC(=O)Cc3ccccc3)C(=O)N2[C@H]1C(=O)O [PENICILLIN G POTASSIUM],zone of inhibition at 85 µg/disc,Priestia megaterium [46],20 mm
same,zone of inhibition at 85 µg/disc,Escherichia coli [47],0 mm
C=C1C[C@H](O)[C@H](Br)C(C)(C)[C@]12C=C[C@@](C)(O)CC2 [RIGIDOL],zone of inhibition at 45 µg/disc,Priestia megaterium [48],0 mm
same,zone of inhibition at 45 µg/disc,[49],0 mm
same,zone of inhibition at 45 µg/disc,Fusarium oxysporum [50],0 mm
same,zone of inhibition at 45 µg/disc,Escherichia coli [51],0 mm
same,zone of inhibition at 45 µg/disc,[Chlorella] fusca [52],0 mm
same,zone of inhibition at 45 µg/disc,Mycotypha microspora [53],4 mm
same,zone of inhibition at 45 µg/disc,Microbotryum violaceum [54],5 mm
CN[C@@H]1[C@H](O[C@H]2[C@H](O[C@H]3[C@H](O)[C@@H](O)[C@H](N=C(N)N)[C@@H](O)[C@@H]3N=C(N)N)O[C@@H](C)[C@]2(O)C=O)O[C@@H](CO)[C@H](O)[C@H]1O [STREPTOMYCIN SULFATE],zone of inhibition at 65 µg/disc,Escherichia coli [55],3 mm
same,zone of inhibition at 65 µg/disc,Priestia megaterium [56],5 mm
